Measurements published in ChEMBL document CHEMBL3352549, “Discovery, biological evaluation, and crystal structure of a novel nanomolar selective butyrylcholinesterase inhibitor” (J Med Chem, 2014).

Experiments:
SH-SY5Y [1] = assay: Neuroprotective activity in human SH-SY5Y cells assessed as inhibition of amyloid beta(1-42)-induced neurotoxicity at 0.1 to 10 uM incubated for 48 hrs by LDH release assay; format: functional, cell-based
[2] = biological target: Cholinesterase (Mus musculus) (UniProt Q03311); assay: Inhibition of recombinant mouse BChE at 10 uM by Ellman method
Sequence of Cholinesterase (Mus musculus) (Q03311 whole entry): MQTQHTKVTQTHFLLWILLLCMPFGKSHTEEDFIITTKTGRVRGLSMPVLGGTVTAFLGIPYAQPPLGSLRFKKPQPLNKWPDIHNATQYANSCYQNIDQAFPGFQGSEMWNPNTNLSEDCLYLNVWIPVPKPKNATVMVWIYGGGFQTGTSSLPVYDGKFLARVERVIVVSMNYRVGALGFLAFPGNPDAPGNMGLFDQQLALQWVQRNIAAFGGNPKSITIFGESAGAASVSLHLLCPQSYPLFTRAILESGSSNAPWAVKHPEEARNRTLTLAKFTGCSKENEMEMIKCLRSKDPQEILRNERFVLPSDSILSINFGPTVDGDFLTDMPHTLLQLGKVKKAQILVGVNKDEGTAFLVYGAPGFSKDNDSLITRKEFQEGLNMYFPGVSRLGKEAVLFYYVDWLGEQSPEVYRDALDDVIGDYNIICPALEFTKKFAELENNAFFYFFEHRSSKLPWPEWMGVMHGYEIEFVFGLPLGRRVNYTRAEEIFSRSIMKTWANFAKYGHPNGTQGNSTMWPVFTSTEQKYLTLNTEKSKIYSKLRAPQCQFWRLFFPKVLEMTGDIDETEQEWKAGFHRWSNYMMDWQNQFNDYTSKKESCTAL

Cholinesterase [3] = biological target: T1, Cholinesterase (Homo sapiens, UniProt P06276); assay: Inhibition of recombinant human BChE at 10 uM by Ellman method
T1 sequence (P06276 whole entry): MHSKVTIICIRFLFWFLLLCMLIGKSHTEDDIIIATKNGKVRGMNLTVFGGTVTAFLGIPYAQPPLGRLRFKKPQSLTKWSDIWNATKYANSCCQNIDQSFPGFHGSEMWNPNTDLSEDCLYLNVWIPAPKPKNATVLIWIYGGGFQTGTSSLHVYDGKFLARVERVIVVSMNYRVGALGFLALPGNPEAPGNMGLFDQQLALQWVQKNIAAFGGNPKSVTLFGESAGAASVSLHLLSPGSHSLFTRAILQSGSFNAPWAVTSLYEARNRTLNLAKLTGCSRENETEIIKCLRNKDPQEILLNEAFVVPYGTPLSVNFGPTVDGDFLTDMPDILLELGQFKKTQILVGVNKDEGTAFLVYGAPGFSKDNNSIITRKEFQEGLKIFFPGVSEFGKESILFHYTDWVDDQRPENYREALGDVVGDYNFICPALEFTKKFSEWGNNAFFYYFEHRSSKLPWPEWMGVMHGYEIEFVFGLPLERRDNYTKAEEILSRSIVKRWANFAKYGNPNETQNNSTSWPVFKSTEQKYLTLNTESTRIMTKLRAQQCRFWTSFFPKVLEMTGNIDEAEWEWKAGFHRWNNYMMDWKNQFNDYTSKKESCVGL

SH-SY5Y [4] = assay: Neuroprotective activity in human SH-SY5Y cells assessed as inhibition of amyloid beta(1-42)-induced neurotoxicity at 0.1 to 10 uM incubated for 48 hrs by MTS assay; format: functional, cell-based
[5] = Cytotoxicity against human SH-SY5Y cells assessed as reduction in cell viability at 10 uM after 48 hrs by MTS assay; format: cell-based
Cholinesterase [6] = biological target: T1, Cholinesterase; assay: Inhibition of recombinant human BChE at 50 nM by stopped flow apparatus method
Acetylcholinesterase = biological target: T2, Acetylcholinesterase (Mus musculus, UniProt P21836); assay: Inhibition of recombinant mouse AChE by Ellman method
T2 sequence (P21836 whole entry): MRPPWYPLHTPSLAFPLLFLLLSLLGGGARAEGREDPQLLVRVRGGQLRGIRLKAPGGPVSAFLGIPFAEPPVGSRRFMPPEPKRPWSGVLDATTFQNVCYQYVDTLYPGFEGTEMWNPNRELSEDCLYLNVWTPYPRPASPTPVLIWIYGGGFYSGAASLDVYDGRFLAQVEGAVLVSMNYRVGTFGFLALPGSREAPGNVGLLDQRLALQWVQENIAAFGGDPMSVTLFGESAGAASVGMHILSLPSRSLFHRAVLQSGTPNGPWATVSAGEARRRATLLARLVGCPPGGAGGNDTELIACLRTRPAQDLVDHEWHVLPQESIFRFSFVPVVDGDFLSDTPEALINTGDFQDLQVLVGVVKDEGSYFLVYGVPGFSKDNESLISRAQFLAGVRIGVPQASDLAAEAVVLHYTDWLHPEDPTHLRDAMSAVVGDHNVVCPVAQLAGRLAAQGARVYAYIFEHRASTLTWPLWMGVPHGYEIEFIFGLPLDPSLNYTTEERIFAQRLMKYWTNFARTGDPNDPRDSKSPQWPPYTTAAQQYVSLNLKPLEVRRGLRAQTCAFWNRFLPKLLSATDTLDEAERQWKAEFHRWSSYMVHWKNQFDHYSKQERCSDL

Cholinesterase [7] = biological target: T1, Cholinesterase
Description: Inhibition of recombinant human BChE by Ellman method

[8] = biological target: T3, Acetylcholinesterase (Mus musculus) (UniProt P21836); assay: Inhibition of recombinant mouse AChE assessed as residual activity at 10 uM by Ellman method
T3 sequence (whole entry): T2 sequence (P21836 whole entry)

SMILES	Activity (SH-SY5Y [1])	inhibition [2] [%]	inhibition (Cholinesterase [3]) [%]	Activity (SH-SY5Y [4])	Activity [5]	Ki (Cholinesterase [6]) [nM]	IC50 (Acetylcholinesterase; read-out: IC50) [nM]	IC50 (Cholinesterase [7]) [nM]	IC50 (Acetylcholinesterase)	Activity [8] [%]
COCCN(CC1CCCN(C2Cc3ccccc3C2)C1)C(=O)c1ccc2ccccc2c1 (racemic)	Dose-dependent effect	> 50	> 50	Dose-dependent effect	Non-toxic	–	–	–	–	–
COCCN(C[C@H]1CCCN(C2Cc3ccccc3C2)C1)C(=O)c1ccc2ccccc2c1	–	–	–	–	–	27	110000	166	–	–
COCCN(C[C@@H]1CCCN(C2Cc3ccccc3C2)C1)C(=O)c1ccc2ccccc2c1	–	–	–	–	–	2.71	101000	13	–	–
CCn1nc(C(=O)N2CCCC2)c2c1CCC(NCCc1nc(-c3ccccc3)cs1)C2 (centres undefined)	–	> 50	> 50	–	–	–	–	2150	Not Active	–
CC(c1nc2ccccc2s1)N(C)C(=O)CN1CCCC1c1ccc2c(c1)OCCCO2 (centres undefined)	–	> 50	> 50	–	–	–	–	1360	–	94
